# Experimental data: US6737383B1, “Herbicidal oxadiazolidines” (priority 1999, dated 2004)
# Tests used:
# [1] = tested on: bedstraw; experiment: Test B pre/postemergence bedstraw; type: in vivo, Galium aparine
# In short: (§1)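 Test chemicals in a non-phytotoxic solvent mixture with surfactant were sprayed preemergence onto planted seeds and postemergence onto plants 2 to 18 cm tall (1- to 4-leaf stage). After twelve to sixteen days in a greenhouse, injury was visually rated against untreated controls from 0 (no effect) to 10 (complete control).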
# [2] = tested on: blackgrass; experiment: Test B pre/postemergence blackgrass; type: in vivo, Alopecurus myosuroides
# In short: as §1
# [3] = tested on: surinam grass; experiment: Test B pre/postemergence surinam grass; type: in vivo, Brachiaria decumbens
# In short: as §1
# [4] = tested on: cocklebur; experiment: Test B pre/postemergence cocklebur; type: in vivo, Xanthium strumarium
# In short: as §1
# [5] = tested on: corn; experiment: Test B pre/postemergence corn; type: in vivo, Zea mays
# In short: as §1
# [6] = tested on: crabgrass; experiment: Test B pre/postemergence crabgrass; type: in vivo, Digitaria sanguinalis
# In short: as §1
# [7] = tested on: morningglory; experiment: Test B pre/postemergence morningglory; type: in vivo, Ipomoea hederacea
# In short: as §1
# [8] = tested on: pigweed; experiment: Test B pre/postemergence pigweed; type: in vivo, Amaranthus retroflexus
# In short: as §1
# [9] = tested on: rape; experiment: Test B pre/postemergence rape; type: in vivo, Brassica napus
# In short: as §1
# [10] = tested on: sugar beet; experiment: Test B pre/postemergence sugar beet; type: in vivo, Beta vulgaris
# In short: as §1
# [11] = tested on: velvetleaf; experiment: Test B pre/postemergence velvetleaf; type: in vivo, Abutilon theophrasti
# In short: as §1
# [12] = tested on: wheat; experiment: Test B pre/postemergence wheat; type: in vivo, Triticum aestivum
# In short: as §1
# [13] = tested on: wild oat; experiment: Test B pre/postemergence wild oat; type: in vivo, Avena fatua
# In short: as §1
# [14] = tested on: purple nutsedge; experiment: Test B pre/postemergence purple nutsedge; type: in vivo, Cyperus rotundus
# In short: as §1
# [15] = tested on: smallflower flatsedge; experiment: Test B flood test smallflower flatsedge; type: in vivo, Cyperus difformis
# In short: (§2)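 Each value is a visual injury score relative to controls, with 10 meaning complete control and 0 no effect. Evaluation took place twelve to sixteen days after the 2-leaf-stage plants were treated and kept in the greenhouse.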
# [16] = tested on: duck salad; experiment: Test B flood test duck salad; type: in vivo, Heteranthera limosa
# In short: as §2
# [17] = Postemergence, Rate 62 g/ha, scale 0 to 10, 0 is no effect, 10 is complete control
# [18] = Postemergence, Rate 250 g/ha, scale 0 to 10, 0 no effect, 10 complete control
# [19] = Preemergence, Rate 62 g/ha, scale 0 to 10, 0 is no effect, 10 is complete control
# [20] = Preemergence, Rate 125 g/ha, scale 0 to 10 (0 no effect, 10 complete control)
# [21] = Preemergence, Rate 250 g/ha, scale of 0 to 10 where 0 is no effect and 10 is complete control
# [22] = Preemergence, Rate 500 g/ha, scale 0 (no effect) to 10 (complete control)
# [23] = Rate 125 g/ha, Postemergence, scale 0 to 10, 0 no effect, 10 complete control
# [24] = Rate 500 g/ha, Postemergence, 0 to 10 scale (0 no effect, 10 complete control)
# [25] = Rate 125 g/ha, Postemergence section (flood test species), scale 0 to 10, 0 no effect, 10 complete control
# [26] = flood test, listed under Postemergence, Rate 250 g/ha, scale 0 to 10, 0 no effect, 10 complete control
structure (smiles),measurement,setting,value
Cc1ccccc1-n1c(=O)on(C(=O)N(c2cc(OC(C)C)c(Cl)cc2Cl)C(C)C)c1=O [Compound 42],Bedstraw plant response rating,[1]; [17],0
same,Bedstraw plant response rating,[1]; [18],0
same,"Plant response rating, Bedstraw",[1]; [19],0
same,"Plant response rating, Bedstraw",[1]; [20],0
same,"Plant response rating, Bedstraw",[1]; [21],0
same,Bedstraw plant response rating,[1]; [22],0
same,Bedstraw plant response rating,[1]; [23],0
same,Blackgrass plant response rating,[2]; [17],0
same,Blackgrass plant response rating,[2]; [18],0
same,"Plant response rating, Blackgrass",[2]; [19],0
same,"Plant response rating, Blackgrass",[2]; [20],0
same,"Plant response rating, Blackgrass",[2]; [21],0
same,Blackgrass plant response rating,[2]; [22],0
same,Blackgrass plant response rating,[2]; [23],0
same,Blackgrass plant response rating,[2]; [24],0
same,B. signalgrass plant response rating,[3]; [17],0
same,B. signalgrass plant response rating,[3]; [18],0
same,"Plant response rating, B. signalgrass",[3]; [19],0
same,"Plant response rating, B. signalgrass",[3]; [20],0
same,"Plant response rating, B. signalgrass",[3]; [21],0
same,B. signalgrass plant response rating,[3]; [22],0
same,B. signalgrass plant response rating,[3]; [23],0
same,B. signalgrass plant response rating,[3]; [24],0
same,Cocklebur plant response rating,[4]; [17],0
same,Cocklebur plant response rating,[4]; [18],0
same,"Plant response rating, Cocklebur",[4]; [19],0
same,"Plant response rating, Cocklebur",[4]; [20],0
same,"Plant response rating, Cocklebur",[4]; [21],0
same,Cocklebur plant response rating,[4]; [22],0
same,Cocklebur plant response rating,[4]; [23],0
same,Cocklebur plant response rating,[4]; [24],0
same,Corn plant response rating,[5]; [17],0
same,Corn plant response rating,[5]; [18],0
same,"Plant response rating, Corn",[5]; [19],0
same,"Plant response rating, Corn",[5]; [20],0
same,"Plant response rating, Corn",[5]; [21],0
same,Corn plant response rating,[5]; [22],0
same,Corn plant response rating,[5]; [23],0
same,Corn plant response rating,[5]; [24],0
same,Crabgrass plant response rating,[6]; [17],0
same,Crabgrass plant response rating,[6]; [18],0
same,"Plant response rating, Crabgrass",[6]; [19],0
same,"Plant response rating, Crabgrass",[6]; [20],0
same,"Plant response rating, Crabgrass",[6]; [21],0
same,Crabgrass plant response rating,[6]; [22],0
same,Crabgrass plant response rating,[6]; [23],0
same,Crabgrass plant response rating,[6]; [24],0
same,Morningglory plant response rating,[7]; [17],0
same,Morningglory plant response rating,[7]; [18],0
same,"Plant response rating, Morningglory",[7]; [19],0
same,"Plant response rating, Morningglory",[7]; [20],0
same,"Plant response rating, Morningglory",[7]; [21],0
same,Morningglory plant response rating,[7]; [22],0
same,Morningglory plant response rating,[7]; [23],0
same,Morningglory plant response rating,[7]; [24],1
same,Redroot pigweed plant response rating,[8]; [17],0
same,Redroot pigweed plant response rating,[8]; [18],0
same,"Plant response rating, Redroot pigweed",[8]; [19],0
same,"Plant response rating, Redroot pigweed",[8]; [20],0
same,"Plant response rating, Redroot pigweed",[8]; [21],0
same,Redroot pigweed plant response rating,[8]; [22],0
same,Redroot pigweed plant response rating,[8]; [23],0
same,Redroot pigweed plant response rating,[8]; [24],2
same,Rape plant response rating,[9]; [17],0
same,Rape plant response rating,[9]; [18],0
same,"Plant response rating, Rape",[9]; [19],0
same,"Plant response rating, Rape",[9]; [20],0
same,"Plant response rating, Rape",[9]; [21],0
same,Rape plant response rating,[9]; [22],0
same,Rape plant response rating,[9]; [23],0
same,Rape plant response rating,[9]; [24],0
same,Sugarbeets plant response rating,[10]; [17],0
same,Sugarbeets plant response rating,[10]; [18],0
same,"Plant response rating, Sugarbeets",[10]; [19],0
same,"Plant response rating, Sugarbeets",[10]; [20],0
same,"Plant response rating, Sugarbeets",[10]; [21],0
same,Sugarbeets plant response rating,[10]; [22],0
same,Sugarbeets plant response rating,[10]; [23],0
same,Velvetleaf plant response rating,[11]; [17],0
same,Velvetleaf plant response rating,[11]; [18],0
same,"Plant response rating, Velvetleaf",[11]; [19],0
same,"Plant response rating, Velvetleaf",[11]; [20],0
same,"Plant response rating, Velvetleaf",[11]; [21],0
same,Velvetleaf plant response rating,[11]; [22],0
same,Velvetleaf plant response rating,[11]; [23],0
same,Wheat plant response rating,[12]; [17],0
same,Wheat plant response rating,[12]; [18],0
same,"Plant response rating, Wheat",[12]; [19],0
same,"Plant response rating, Wheat",[12]; [20],0
same,"Plant response rating, Wheat",[12]; [21],0
same,Wheat plant response rating,[12]; [22],0
same,Wheat plant response rating,[12]; [23],0
same,Wild oats plant response rating,[13]; [17],0
same,Wild oats plant response rating,[13]; [18],0
same,"Plant response rating, Wild oats",[13]; [20],0
same,"Plant response rating, Wild oats",[13]; [21],0
same,Wild oats plant response rating,[13]; [22],0
same,Wild oats plant response rating,[13]; [23],0
same,Nutsedge plant response rating,[14]; [17],0
same,Nutsedge plant response rating,[14]; [18],0
same,"Plant response rating, Nutsedge",[14]; [19],0
same,"Plant response rating, Nutsedge",[14]; [20],0
same,"Plant response rating, Nutsedge",[14]; [21],0
same,Nutsedge plant response rating,[14]; [22],0
same,Nutsedge plant response rating,[14]; [23],0
same,Nutsedge plant response rating,[14]; [24],0
same,S. Flatsedge plant response rating,[15]; [17],0
same,S. Flatsedge plant response rating,[15]; [25],0
same,S. Flatsedge plant response rating,[15]; [26],0
same,Ducksalad plant response rating,[16]; [17],0
same,Ducksalad plant response rating,[16]; [25],0
same,Ducksalad plant response rating,"[16]; Rate 500 g/ha, Postemergence section of Table B, 0 to 10 scale (0 no effect, 10 complete control)",0
same,Ducksalad plant response rating,[16]; [26],0
